Experimental data published in patent US11000033B2, “Ketone or oxime compound, and herbicide” (NISSAN CHEMICAL CORPORATION, priority 2014, dated 2021).

How the values were obtained:
Format in all cases: in vivo
[1] = system: Echinochloa crus-galli var. crus-galli; assay: Test Example 4: herbicidal effect by soil treatment (symbol H); conditions: application herbicide amount 320 g/ha
Outline: (§1)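 Seeds were sown in sterilized diluvial soil, covered with about 1.5 cm of soil, and the soil surface was sprayed with a water-diluted emulsion of the compound at a predetermined rate. Plants grew in a greenhouse at 25° C. to 30° C.; effects were scored visually 3 weeks after application.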

[2] = system: Echinochloa oryzacola Vasing.; assay: Test Example 2: herbicidal activity, application during weed generation in submerged conditions (symbol A); conditions: Table 23; application herbicide amount 320 g/ha; grade 0-5 by criteria of Test Example 1
Outline: (§2)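 Paddy pot test, submerged (4 cm water), alluvial soil, mixed sowing; greenhouse 25–30° C. Emulsion formulation diluted to predetermined rate, applied onto floodwater at 1–2 leaf stage. Visual herbicidal rating at 3 wk post-treatment.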

[3] = system: beet; assay: Test Example 4: effect on crop by soil treatment (symbol f); conditions: application herbicide amount 320 g/ha
Outline: (§3)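 Steps: fill box with sterilized diluvial soil; sow seed spot-like; cover with ~1.5 cm soil; grow in greenhouse (25° C. to 30° C.).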

[4] = system: wheat; assay: Test Example 5: effect on crop by foliage application, plastic box (symbol e); conditions: 320 g/ha, 3 weeks after application
Outline: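 Sterilized diluvial soil, plastic box (21 × 13 × 7 cm); spot sowing, ~1.5 cm soil cover; greenhouse 25–30° C.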

[5] = system: Alopecurus myosuroides; assay: Test Example 5: herbicidal effect by foliage application, plastic box (symbol J); conditions: 320 g/ha, 3 weeks after application
Outline: (§4)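 Visual herbicidal score, taken three weeks post-application, of seedlings sprayed on the foliage with water-diluted emulsion at a predetermined amount; plants were 14 days old, greenhouse-raised at 25° C. to 30° C.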

[6] = system: Cyperus difformis; assay: Test Example 3: herbicidal effect by foliage application, Wagner pot (symbol E); conditions: application herbicide amount 320 g/ha
Outline: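 Foliar spray of water-diluted emulsion formulation at a predetermined herbicide amount onto 14-day-old plants in flooded alluvial soil (water depth 0.1–0.5 cm), greenhouse 25–30 °C; rice sown alongside. Scored 3 wk post-application on set criteria.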

[7] = system: soybean; assay: Test Example 4: effect on crop by soil treatment (symbol d); conditions: application herbicide amount 320 g/ha
Outline: as §3

[8] = system: Monochoria vaginalis; assay: Test Example 2: herbicidal activity, application during weed generation in submerged conditions (symbol C); conditions: Table 23; application herbicide amount 320 g/ha; grade 0-5 by criteria of Test Example 1
Outline: as §2

[9] = system: Echinochloa oryzacola Vasing.; assay: Test Example 1: herbicidal activity, application before weed generation in submerged conditions (symbol A); conditions: application herbicide amount 320 g/ha
Outline: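 Scores run 0 to 5 by herbicidal ratio, with 5 meaning 90% or more and 0 meaning 5% or lower, read 3 weeks after treatment. Compound was applied as a diluted emulsion to the water surface of submerged alluvial-soil pots on the day weed seeds were sown.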

[10] = system: wheat; assay: Test Example 4: effect on crop by soil treatment (symbol e); conditions: application herbicide amount 320 g/ha
Outline: as §3

[11] = system: Alopecurus myosuroides; assay: Test Example 4: herbicidal effect by soil treatment (symbol J); conditions: application herbicide amount 320 g/ha
Outline: as §1

[12] = system: Amaranthus retroflexus; assay: Test Example 5: herbicidal effect by foliage application, plastic box (symbol N); conditions: 320 g/ha, 3 weeks after application
Outline: as §4

| Structure (SMILES) | Herbicidal effect grade, A: Echinochloa oryzacola Vasing. [2] | e: wheat, effect on crop (criteria of Test Example 1) [4] | J: Alopecurus myosuroides, herbicidal effect (criteria of Test Example 1) [5] | herbicidal effect on E, grade 0-5 [6] | Herbicidal effect grade, C: Monochoria vaginalis [8] | Herbicidal effect grade, A: Echinochloa oryzacola Vasing. [9] | Herbicidal effect grade, H: Echinochloa crus-galli var. crus-galli [1] | Effect on crop grade, f: beet [3] | Effect on crop grade, d: soybean [7] | Effect on crop grade, e: wheat [10] | Herbicidal effect grade, J: Alopecurus myosuroides [11] | N: Amaranthus retroflexus, herbicidal effect (criteria of Test Example 1) [12] | other results |
| --- | --- | --- | --- | --- | --- | --- | --- | --- | --- | --- | --- | --- | --- |
| CCc1cc(-c2ccc(Cl)cc2)cc(C)c1C1=C(OC(=O)N2CCOCC2)CC(CC(C)=NOC)C1=O (mixture of isomers) [6-064] | 4 (Herbicidal ratio of 70% or higher and lower than 90%) | 5 (Herbicidal ratio of 90% or more (almost completely withered)) | 3 (Herbicidal ratio of 40% or higher and lower than 70%) | 0 (Herbicidal ratio of 5% or lower (almost no effect)) | 0 (Herbicidal ratio of 5% or lower (almost no effect)) | 5 (Herbicidal ratio of 90% or more (almost completely withered)) |  |  |  |  |  |  | H: Echinochloa crus-galli var. crus-galli, herbicidal effect grade [1]: 5 (Herbicidal ratio of 90% or more (almost completely withered)); f: beet, effect on crop grade [3]: 0 (Herbicidal ratio of 5% or lower (almost no effect)); d: soybean, effect on crop grade [7]: 0 (Herbicidal ratio of 5% or lower (almost no effect)); e: wheat, effect on crop grade [10]: 0 (Herbicidal ratio of 5% or lower (almost no effect)); J: Alopecurus myosuroides, herbicidal effect grade [11]: 4 (Herbicidal ratio of 70% or higher and lower than 90%) |
| CC(CC1CC(O)=C(c2c(C)cc(C)cc2C)C1=O)=NOCc1ccccc1 (centres unmarked) [1-020] | 5 (Herbicidal ratio of 90% or more (almost completely withered)) |  |  | 2 (Herbicidal ratio of 20% or higher and lower than 40%) | 2 (Herbicidal ratio of 20% or higher and lower than 40%) | 5 (Herbicidal ratio of 90% or more (almost completely withered)) |  |  |  |  |  |  | H (Echinochloa crus-galli var. crus-galli) herbicidal effect grade [1]: 5 (Herbicidal ratio of 90% or more (almost completely withered)); f (beet) effect on crop grade [3]: 0 (Herbicidal ratio of 5% or lower (almost no effect)); e: wheat, effect on crop grade [4]: 5 (Herbicidal ratio of 90% or more (almost completely withered)); J: Alopecurus myosuroides, herbicidal effect grade [5]: 5 (Herbicidal ratio of 90% or more (almost completely withered)); d (soybean) effect on crop grade [7]: 0 (Herbicidal ratio of 5% or lower (almost no effect)); e (wheat) effect on crop grade [10]: 2 (Herbicidal ratio of 20% or higher and lower than 40%); J (Alopecurus myosuroides) herbicidal effect grade [11]: 5 (Herbicidal ratio of 90% or more (almost completely withered)) |
| CON=C(C)CC1CC(OC(=O)N2CCOCC2)=C(c2c(C)cc(-c3ccc(Cl)cc3F)cc2C)C1=O (centres unmarked) [6-089] | 5 (Herbicidal ratio of 90% or more (almost completely withered)) | 4 (Herbicidal ratio of 70% or higher and lower than 90%) | 5 (Herbicidal ratio of 90% or more (almost completely withered)) | 4 (Herbicidal ratio of 70% or higher and lower than 90%) | 3 (Herbicidal ratio of 40% or higher and lower than 70%) | 5 (Herbicidal ratio of 90% or more (almost completely withered)) | 1 (Herbicidal ratio of 5% or higher and lower than 20%) | 0 (Herbicidal ratio of 5% or lower (almost no effect)) | 0 (Herbicidal ratio of 5% or lower (almost no effect)) | 0 (Herbicidal ratio of 5% or lower (almost no effect)) | 2 (Herbicidal ratio of 20% or higher and lower than 40%) |  |  |
| CON=C(C)CC1CC(O)=C(c2c(F)cc(Br)cc2OC)C1=O (centres unmarked) [6-096] | 4 (Herbicidal ratio of 70% or higher and lower than 90%) | 3 (Herbicidal ratio of 40% or higher and lower than 70%) | 4 (Herbicidal ratio of 70% or higher and lower than 90%) | 5 (Herbicidal ratio of 90% or more (almost completely withered)) | 0 (Herbicidal ratio of 5% or lower (almost no effect)) | 1 (Herbicidal ratio of 5% or higher and lower than 20%) | 4 (Herbicidal ratio of 70% or higher and lower than 90%) | 0 (Herbicidal ratio of 5% or lower (almost no effect)) | 0 (Herbicidal ratio of 5% or lower (almost no effect)) | 0 (Herbicidal ratio of 5% or lower (almost no effect)) | 3 (Herbicidal ratio of 40% or higher and lower than 70%) |  |  |
| CON=C(C)CC1CC(OC(=O)N(C)C)=C(c2c(C)cc(C)cc2OC)C1=O (centres unmarked) [6-109] | 5 (Herbicidal ratio of 90% or more (almost completely withered)) | 4 (Herbicidal ratio of 70% or higher and lower than 90%) | 5 (Herbicidal ratio of 90% or more (almost completely withered)) |  | 2 (Herbicidal ratio of 20% or higher and lower than 40%) | 5 (Herbicidal ratio of 90% or more (almost completely withered)) | 5 (Herbicidal ratio of 90% or more (almost completely withered)) | 0 (Herbicidal ratio of 5% or lower (almost no effect)) | 0 (Herbicidal ratio of 5% or lower (almost no effect)) | 0 (Herbicidal ratio of 5% or lower (almost no effect)) | 5 (Herbicidal ratio of 90% or more (almost completely withered)) | 4 (Herbicidal ratio of 70% or higher and lower than 90%) |  |
| CON=C(C)CC1CC(OC(=O)N2CCCC2)=C(c2c(C)cc(C)cc2OC)C1=O (centres unmarked) [6-110] | 5 (Herbicidal ratio of 90% or more (almost completely withered)) | 4 (Herbicidal ratio of 70% or higher and lower than 90%) | 5 (Herbicidal ratio of 90% or more (almost completely withered)) |  | 0 (Herbicidal ratio of 5% or lower (almost no effect)) | 5 (Herbicidal ratio of 90% or more (almost completely withered)) | 5 (Herbicidal ratio of 90% or more (almost completely withered)) | 0 (Herbicidal ratio of 5% or lower (almost no effect)) | 0 (Herbicidal ratio of 5% or lower (almost no effect)) | 0 (Herbicidal ratio of 5% or lower (almost no effect)) | 3 (Herbicidal ratio of 40% or higher and lower than 70%) | 0 (Herbicidal ratio of 5% or lower (almost no effect)) |  |
| CON=C(C)CC1CC(OC(=O)N2CCCCC2)=C(c2c(C)cc(C)cc2OC)C1=O (centres unmarked) [6-111] | 5 (Herbicidal ratio of 90% or more (almost completely withered)) | 4 (Herbicidal ratio of 70% or higher and lower than 90%) | 5 (Herbicidal ratio of 90% or more (almost completely withered)) |  | 4 (Herbicidal ratio of 70% or higher and lower than 90%) | 5 (Herbicidal ratio of 90% or more (almost completely withered)) | 4 (Herbicidal ratio of 70% or higher and lower than 90%) | 0 (Herbicidal ratio of 5% or lower (almost no effect)) | 0 (Herbicidal ratio of 5% or lower (almost no effect)) | 0 (Herbicidal ratio of 5% or lower (almost no effect)) | 5 (Herbicidal ratio of 90% or more (almost completely withered)) | 2 (Herbicidal ratio of 20% or higher and lower than 40%) |  |
